Measured values published in US5496834A, “Lactol derivatives, their production and use” (Takeda Chemical Industries, Ltd., priority 1993, dated 1996).
Numbered stars: 1 amine (or outer) side, 2 acyl side, 3 side chain; on linkers, the order of the positions; unused ones are H or OH. Peptide text beside a SMILES is read from it. CO = O=C([*:1])[*:2]

What was measured:
human cathepsin L = target: T1, human cathepsin L (Homo sapiens, UniProt P07711); assay: human cathepsin L inhibitory action; type: biochemical; settings: recombinant human cathepsin L, substrate Z-Phe-Arg-NMec, pH 5.5, 30° C., 10 minutes
T1 construct: made in house
Protocol: The recombinant human cathepsin L obtained by the procedure described in Example 8 of the specification of EPC 931098792 (European Publication No. 0576953 A2) (which is incorporated herein by reference) was diluted to 1 μg/ml with a diluent (0.1% Brij35, Sigma). This diluted enzyme solution was admixed with 46 μl of said diluent, 2 μl of 0.1M DTT and 25 μl of an activator/buffer (340 mM sodium acetate, 60 mM acetic acid, 4 mM EDTA disodium, pH 5.5). Then, 1 μl of a solution of the test compound in dimethyl sulfoxide (DMSO) (10 ^-2 M) and 25 μl of 20 μM Z-phe-Arg-NMec (substrate solution) were added. The mixture was incubated at 30° C. for 10 minutes, after which 100 μl of a reaction stopper (100 mM sodium monochloroacetate, 30 mM sodium acetate, pH 4.3) was added. This reaction was carried out on a 96-well Fluoroplate (Labosystems).
After termination of the reaction, the intensity of fluorescence of liberated aminomethylcoumarin at 450 nm was measured at an excitation wavelength of 365 nm. As a blank experiment, 1 μl of DMSO not containing the test compound was added and the intensity of fluorescence after the reaction was taken as 100% activity. For a sample showing a residual activity of 10% or less, a further diluted solution was used to determine the residual activity by the same procedure as above. Then, IC50 values were calculated.

[1] = tested on: bone (antebrachial bones: radii, cubiti); assay: bone resorption inhibitory action (45Ca release from cultured fetal rat bones); type: cell-based, Sprague-Dawley rat; settings: 48 h, 2 days culture, mean of 5 bone pieces, lower = stronger inhibition, read-out: Bone resorption Inhibitory Activity [45Ca release (Percent to control)]; for activity at 10 µM: concentration 10 μM, p<0.05, p<0.01, ***, p<0.001 vs. control; for activity at 30 µM: concentration 30 μM, p<0.05, p<0.01 vs. control
Protocol: Bone resorption inhibitory activity was assayed by the method of Raisz [J. Clin. Invest. 44, 103-116 (1965) which is incorporated herein by reference]. Thus, a Sprague-Dawley rat on day 18 of gestation was subcutaneously dosed with 50 μCi of ^45 Ca (an isotope of calcium, dissolved in CaCl2). The following day, the abdomen was opened and the fetuses were aseptically extracted. Under the dissecting microscope, the bilateral antebrachial bones (radii, cubiti) were separated from the carcass and the connective tissues and cartilages were removed as far as possible to prepare bone culture specimens. Each of these bone specimens was put in 0.6 ml of BGJb medium (Fitton-Jackson modification; GIBCO Laboratories, USA) supplemented with bovine serum albumin (final concentration 2 mg/ml) and incubated at 37° C. for 24 hours. This bone was further cultured in the same medium containing the test compound (final concentration 10 μM or 30 μM) for 2 days. The percent ratio (%) of ^45 Ca released from the bone to the medium was calculated from the radioactivity count in the medium and that in the bone by means of the following equation. [formula]
As a control group, the bones from a fetus of the same litter were similarly cultured for 2 days. The mean ± standard deviation was calculated for 5 bone pieces per group and the percentage (%) of this value relative to the value of the control group was calculated.

mice = assay: oral toxicity in mice; type: in vivo; settings: 500 mg/kg
Text: Moreover, its toxic potential is low. […] Therefore, the compound (Ia) or (Ib) of this invention can be used in the prophylaxis and therapy of osteoporosis in mammalian animals (e.g. mouse, rat, rabbit, dog, cat, cattle, swine and man).

cathepsin L = settings: reported as one of their inhibition activities; cited from earlier work

T1 sequence (P07711 114-333): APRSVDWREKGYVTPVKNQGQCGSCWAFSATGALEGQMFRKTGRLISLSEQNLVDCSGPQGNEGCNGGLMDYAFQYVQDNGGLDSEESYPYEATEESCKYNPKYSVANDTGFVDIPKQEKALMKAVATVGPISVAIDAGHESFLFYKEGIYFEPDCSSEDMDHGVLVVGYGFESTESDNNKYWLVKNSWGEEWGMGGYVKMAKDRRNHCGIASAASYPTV

Structure (SMILES)	IC50 (human cathepsin L)	activity at 10 µM [1]	other results
CC(C)(C)OC(=O)N[C@@H](Cc1ccccc1)C(=O)N[C@H]1CCOC1O (stereo partly drawn) [Example 1, (3S)-3-[[N-tert-butoxycarbonyl-(L)-phenylalanyl]amino]-2-hydroxytetrahydrofuran]	30 nM	–	–
CC[C@H](C)[C@H](NS(=O)(=O)c1cccc2ccccc12)C(=O)N[C@H]1CCOC1O (stereo partly drawn) [Example 4]	57 nM	–	–
O=C(N[C@@H](Cc1ccccc1)C(=O)N[C@H]1CCOC1O)OCc1ccccc1 (stereo partly drawn) [Example 5]	8 nM	–	–
CC(C)[C@H](NC(=O)OCc1ccccc1)C(=O)N[C@H]1CCOC1O (stereo partly drawn) [Example 6]	30 nM	–	–
CCCC(CCC)C(=O)N[C@H](C(=O)N[C@H]1CCOC1O)C(C)C (stereo partly drawn) [Example 12]	32 nM	64%	–
O=C(COc1ccccc1)N[C@@H](Cc1ccccc1)C(=O)N[C@H]1CCOC1O (stereo partly drawn) [Example 14]	9.4 nM	–	–
CC(C)C[C@H](NC(=O)OCc1ccccc1)C(=O)N[C@H]1CCOC1O (stereo partly drawn) [Example 15]	–	26%	–
CC(C)C[C@H](NC(=O)OCc1ccccc1)C(=O)N[C@@H](CC(C)C)C(=O)N[C@H]1CCOC1O (stereo partly drawn) [Example 16]	–	77%	–
CC(C)C[C@H](NC(=O)Nc1cccc2ccccc12)C(=O)N[C@H]1CCOC1O (stereo partly drawn) [Example 17]	6.9 nM	–	–
CC(C)C[C@H](NC(=S)Nc1cccc2ccccc12)C(=O)N[C@H]1CCOC1O (stereo partly drawn) [Example 21]	–	67%	–
O=C(N[C@@H](Cc1ccccc1)C(=O)N[C@H]1CCCOC1O)OCc1ccccc1 (stereo partly drawn) [Example 23]	28 nM	–	–
CC(=O)OC1OCC[C@@H]1NC(=O)[C@@H](NC(=O)OCc1ccccc1)C(C)C (stereo partly drawn) [Example 25, (3S)-2-acetoxy-3-[[N-benzyloxycarbonyl-(L)-valyl]amino]tetrahydrofuran]	450 nM	75%	–
CC(=O)O[C@@H]1OCC[C@@H]1NC(=O)[C@H](CC(C)C)NC(=O)Nc1cccc2ccccc12 [Example 29, (2S,3S)-2-acetoxy-3-[[N-(1-naphthylcarbamoyl)-(L)-leucyl]amino]-tetrahydrofuran]	–	–	activity at 30 µM [1]: 67%
CC(C)C[C@H](NC(=O)Nc1cccc2ccccc12)C(=O)NC1CCOC1O (stereo partly drawn) [Example 32, 2-hydroxy-3-[[N-(1-naphthylcarbamoyl)-(L)-leucyl]amino]tetrahydrofuran]	–	–	activity at 30 µM [1]: 77%
CC(C)C[C@H](NS(=O)(=O)c1cccc2ccccc12)C(=O)N[C@H]1CCCOC1O (stereo partly drawn) [Example 35, (3S)-2-hydroxy-3-[[N-(1-naphthalenesulfonyl)-(L)-leucyl]amino]tetrahydropyran]	–	82%	–
CC(C)C[C@H](NC(=O)OCc1ccccc1)C(=O)N[C@@H](CC(C)C)C(=O)N[C@H]1CCCOC1O (stereo partly drawn) [Example 38]	52 nM	–	–
CCOP(=O)(Cc1ccc(C(=O)N[C@@H](CC(C)C)C(=O)N[C@H]2CCOC2O)cc1)OCC (stereo partly drawn) [Example 42]	29 nM	–	–
CCCC(CCC)C(=O)N[C@H](C(=O)N[C@H]1CCO[C@H]1OC(C)=O)C(C)C [Example 60]	–	–	deaths after oral administration (mice): killed no test animals
CC(=O)O[C@@H]1OCC[C@@H]1NC(=O)[C@H](CC(C)C)NC(=O)c1cccnc1 [Example 62]	870 nM	–	–
CC(=O)O[C@@H]1OCC[C@@H]1NC(=O)[C@H](CC(C)C)NC(=O)c1ccccn1 [Example 64]	690 nM	–	–
CCCC(CCC)C(=O)N[C@H](C(=O)N[C@H]1CCO[C@@H]1OC)C(C)C [Example 73, (2S,3S)-2-methoxy-3-[[N-valproyl-(L)-valyl]amino]tetrahydrofuran]	–	79%	–
COC(=O)C[C@H](NC(=O)OCc1ccccc1)C(=O)N[C@H]1CCOC1OC (stereo partly drawn) [Example 74, (3S)-3-[[N-benzyloxycarbonyl-(L)-(3-methoxycarbonyl)alanyl]amino] -2-methoxytetrahydrofuran]	–	78%	–
COC1OCC[C@@H]1NC(=O)[C@H](CC(C)C)NC(=O)Nc1cccc2ccccc12 (stereo partly drawn) [Example 89, (3S)-2-methoxy-3-[[N-(1-naphthylcarbamoyl)-(L)-leucyl]amino]-tetrahydrofuran]	190 nM	–	–
CC(C)[C@H](NC(=O)[C@H](CCCNC(=N)N)NC(=O)N[C@@H](Cc1ccccc1)C(=O)O)C(=O)N[C@H](C=O)CCCNC(=N)N [antipain] ({Phe-CO}-Arg-Val-Arg-aldehyde)	–	–	cathepsin L inhibitory activity (cathepsin L): cathepsin L inhibitory activity
CC(=O)N[C@@H](CC(C)C)C(=O)N[C@@H](CC(C)C)C(=O)N[C@H](C=O)CCCNC(=N)N [leupeptin]	–	–	cathepsin L inhibitory activity (cathepsin L): cathepsin L inhibitory activity
